Reference: ChEMBL document CHEMBL1201862, “PubChem BioAssay data set” (2004)
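Grown in 96-well plates, cells were treated for 48 hours with each compound at five concentrations. Insufficient inhibition: endpoint recorded as highest concentration tested. Abbreviation: GI50, concentration required for 50% inhibition of growth.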 The source made the active and inactive calls. No stated cut-off is given here; in the data, active = GI50 up to about 1.1 µM and inactive = higher.

Columns and labels:
Test in all cases: NCI tumour cell line growth inhibition, 48 h
SR = test system: SR
HOP-92 = test system: HOP-92
COLO 205 = test system: COLO 205
DU-145 = test system: DU-145
NCI-H460 = test system: NCI-H460
PC-3 = test system: PC-3
MCF7 = test system: MCF7
SW-620 = test system: SW-620
A549 = test system: A549
786-0 = test system: 786-0
K562 = test system: K562
HL-60 = test system: HL-60
HCC 2998 = test system: HCC 2998
CAKI-1 = test system: CAKI-1
KM-20L2 = test system: KM-20L2
SF-268 = test system: SF-268
HCT-15 = test system: HCT-15
SNB-19 = test system: SNB-19
NCI/ADR-RES = test system: NCI/ADR-RES
SNB-75 = test system: SNB-75

Measured: GI50

O=C1CSC(/C(=C\c2ccc(Cl)cc2)c2nc3ccccc3[nH]2)=N1
inactive: SR 36.3 µM | HOP-92 12.4 µM | COLO 205 19.1 µM | DU-145 13.4 µM | NCI-H460 13.3 µM | PC-3 19.5 µM | MCF7 14.6 µM | SW-620 18.5 µM | A549 4.05 µM | 786-0 13.6 µM | K562 34.4 µM | HL-60 26.5 µM | HCC 2998 3.43 µM | CAKI-1 8.79 µM | KM-20L2 31 µM | SF-268 5.08 µM | SNB-19 19.2 µM | NCI/ADR-RES 19.1 µM | SNB-75 12.3 µM
22.8 µM: HCT-15

COc1ccc2nc3cc(Cl)ccc3c(Nc3ccccc3-c3ccccc3Nc3c4ccc(Cl)cc4nc4ccc(OC)cc34)c2c1
14.3 µM: HCT-15
inactive: SR 3.5 µM | HOP-92 31.8 µM | COLO 205 32.6 µM | DU-145 69.3 µM | NCI-H460 33.6 µM | PC-3 11.3 µM | MCF7 40.8 µM | SW-620 15.4 µM | A549 45.2 µM | 786-0 26.7 µM | K562 4.63 µM | HL-60 2.66 µM | HCC 2998 31.6 µM | CAKI-1 21.3 µM | KM-20L2 19.9 µM | SF-268 31.9 µM | SNB-19 40.4 µM | NCI/ADR-RES 13.6 µM | SNB-75 14.7 µM

Clc1ccc(C(c2ccccc2Cl)C(Cl)Cl)cc1 (stereo not given) [MITOTANE]
15.8 µM: HCT-15
inactive: SR 18.7 µM | HOP-92 13 µM | COLO 205 17.3 µM | DU-145 3.3 µM | NCI-H460 17.3 µM | PC-3 3.39 µM | MCF7 19.2 µM | SW-620 18 µM | A549 15.1 µM | 786-0 19.2 µM | K562 16.3 µM | HL-60 18.7 µM | HCC 2998 12.7 µM | CAKI-1 13.1 µM | KM-20L2 16.9 µM | SF-268 18.5 µM | SNB-19 17.6 µM | NCI/ADR-RES 15.3 µM | SNB-75 15.2 µM
